Assay results as given in paper PMC10997755, “Discovery of a small-molecule inhibitor that traps Polθ on DNA and synergizes with PARP inhibitors” (Nature Communications, 2024).
Several values for one entry are separate records, joined by “and”; a condition that tells them apart may be missing. Identical values can stand only once. Entries after “also recorded” stand apart in the source; their conditions may differ.

Legend:
Polθ-pol = target: T1, Polθ-pol (Homo sapiens, UniProt O75417); test: MMEJ in vitro assay; assay type: biochemical
T1 construct: purified recombinant human Polθ-pol (comprising amino acid residues 1792–2590); made in house
T1 sequence (O75417 1792-2590): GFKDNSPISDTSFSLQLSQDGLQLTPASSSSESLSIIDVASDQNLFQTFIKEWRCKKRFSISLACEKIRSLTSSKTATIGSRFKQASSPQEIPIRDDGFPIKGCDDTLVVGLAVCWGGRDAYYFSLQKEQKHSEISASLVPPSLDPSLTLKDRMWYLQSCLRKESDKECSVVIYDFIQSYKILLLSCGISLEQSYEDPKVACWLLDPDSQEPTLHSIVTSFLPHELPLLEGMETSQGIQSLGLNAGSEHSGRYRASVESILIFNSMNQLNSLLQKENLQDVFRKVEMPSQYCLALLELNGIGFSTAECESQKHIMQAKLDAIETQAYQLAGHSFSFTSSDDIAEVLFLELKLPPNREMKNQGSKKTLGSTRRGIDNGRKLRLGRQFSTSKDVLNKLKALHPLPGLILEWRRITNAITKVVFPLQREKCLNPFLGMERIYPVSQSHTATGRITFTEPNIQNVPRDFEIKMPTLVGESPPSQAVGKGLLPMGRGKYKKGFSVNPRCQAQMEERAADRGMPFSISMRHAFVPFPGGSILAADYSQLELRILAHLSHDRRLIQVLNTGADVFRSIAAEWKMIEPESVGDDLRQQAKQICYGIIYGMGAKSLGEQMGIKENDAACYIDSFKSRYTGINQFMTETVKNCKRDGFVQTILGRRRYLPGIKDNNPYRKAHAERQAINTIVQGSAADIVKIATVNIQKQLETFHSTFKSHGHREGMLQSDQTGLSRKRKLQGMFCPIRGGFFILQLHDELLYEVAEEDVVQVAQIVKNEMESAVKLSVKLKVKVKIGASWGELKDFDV
Method: For the MMEJ in vitro assay in the presence of RTx-161, 10 nM Polθ-pol was first mixed with DMSO (3% final concentration) or RTx-161 at indicated final concentrations 4–500 nM in reaction buffer (25 mM Tris-HCl pH 7.5, 10 mM MgCl2, 10% glycerol, 0.1 mg/mL BSA, 0,01% IGEPAL CA-630, 1 mM DTT) followed by incubation for 5 min at room temperature. MMEJ reactions were started by the addition of 50 μM dNTP and 25 nM 5’-^32P radiolabeled pssDNA (RP343/^32P-RP344), incubated for 15 min at 37 °C, stopped by the addition of denaturing formamide loading buffer with 50 mM EDTA, resolved in denaturing 20% PAGE and analyzed using Typhoon PhosphorImager (GE Amersham). Quantification was performed using ImageQuant TL software. For the MMEJ in vitro assay in the presence of MC160385, 0.2–10 μM MC160385, 10 nM Polθ-pol, 60 nM 5’-^32P radiolabeled pssDNA and 100 μM dNTPs were used. The reaction was performed as above and stopped by the Proteinase K treatment in 50 mM EDTA and 0.5% SDS. The products were resolved in native 12% PAGE at room temp and analyzed as above.

[1] = test system: MMEJ reporter (EJ2-GFP) in U2OS cells; test: Chromosomal MMEJ GFP assay; assay type: cell-based; conditions: for % GFP/dsRED ratio, Combined mean: Combined EXP.1-3 (0 uM: 3.78889); for % GFP/dsRED ratio, mean per experiment: means of EXP.1, 2, 3 (0 uM: 4.4, 3.73333, 3.23333); for % GFP/dsRED ratio: single replicates of EXP.1-3
Method: U2OS cells harboring the chromosomal (EJ2-GFP cassette) MMEJ reporter were plated and treated with various concentrations of RTX-161 for 16 h. Cells were co-transfected with either pCMV–3x- NLS-I-SceI or control vector pCMV-3x-NLS using Lipofectamine 2000 (Invitrogen) along with dsRED-Mito cDNA (control for transfection efficiency). GFP^+ frequencies were measured 3 days post transfection by FACS using Facscanto (Becton Dickinson) in triplicates and corrected for transfection efficiency and background events.

Polκ = target: T2, Polκ (Homo sapiens, UniProt Q9UBT6); test: Primer extension by recombinant Pols (selectivity); assay type: biochemical
T2 construct: gift: Dr. Arora (Fox Chase Cancer Center)
T2 sequence (Q9UBT6 1-870): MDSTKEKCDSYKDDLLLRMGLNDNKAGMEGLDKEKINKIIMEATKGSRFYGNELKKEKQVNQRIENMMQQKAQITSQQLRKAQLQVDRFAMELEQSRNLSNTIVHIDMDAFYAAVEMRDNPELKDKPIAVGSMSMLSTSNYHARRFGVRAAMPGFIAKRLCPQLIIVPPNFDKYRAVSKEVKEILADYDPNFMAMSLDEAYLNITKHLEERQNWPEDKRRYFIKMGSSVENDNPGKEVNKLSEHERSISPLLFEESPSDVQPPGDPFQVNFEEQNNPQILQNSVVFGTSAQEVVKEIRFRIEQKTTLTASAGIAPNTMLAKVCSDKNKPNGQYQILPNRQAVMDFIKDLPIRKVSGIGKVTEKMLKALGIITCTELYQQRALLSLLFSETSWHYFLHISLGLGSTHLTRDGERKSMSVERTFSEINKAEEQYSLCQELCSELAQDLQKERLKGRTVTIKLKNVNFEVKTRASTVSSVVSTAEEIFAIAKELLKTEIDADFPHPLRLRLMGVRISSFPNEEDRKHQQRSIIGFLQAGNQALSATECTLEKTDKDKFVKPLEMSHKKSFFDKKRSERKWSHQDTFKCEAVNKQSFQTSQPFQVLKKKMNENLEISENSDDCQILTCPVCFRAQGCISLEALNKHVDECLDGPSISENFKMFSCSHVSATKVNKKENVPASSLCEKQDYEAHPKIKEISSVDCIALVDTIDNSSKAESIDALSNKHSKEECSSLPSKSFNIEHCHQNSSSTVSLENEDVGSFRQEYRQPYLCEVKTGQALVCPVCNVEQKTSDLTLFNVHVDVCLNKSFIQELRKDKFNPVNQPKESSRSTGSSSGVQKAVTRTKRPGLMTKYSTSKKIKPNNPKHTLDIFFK

| SMILES | inhibition of Polθ-pol MMEJ activity in vitro (Polθ-pol) | % GFP/dsRED ratio, Combined mean ([1]; 5 uM) [%] | % GFP/dsRED ratio, mean per experiment ([1]; 5 uM) | % GFP/dsRED ratio ([1]; 5 uM) | % GFP/dsRED ratio, Combined mean ([1]; 10 uM) [%] | % GFP/dsRED ratio, mean per experiment ([1]; 10 uM) | % GFP/dsRED ratio ([1]; 10 uM) | % GFP/dsRED ratio, Combined mean ([1]; 15 uM) [%] | % GFP/dsRED ratio, mean per experiment ([1]; 15 uM) | % GFP/dsRED ratio ([1]; 15 uM) | cellular MMEJ (GFP reporter) ([1]; 20 μM RTx-161) | % GFP/dsRED ratio, Combined mean ([1]; 20 uM) [%] | % GFP/dsRED ratio, mean per experiment ([1]; 20 uM) | % GFP/dsRED ratio ([1]; 20 uM) | % Full Extension (Polκ; Pol Kappa) [%] | % Inhibition Compared to Control (Polκ; Pol Kappa) [%] | % Relative Maximum Extension (Polκ; Pol Kappa) [%] | inhibition of primer extension (Polκ; selectivity panel, Pol named in Supplementary Fig. 1h) |
| --- | --- | --- | --- | --- | --- | --- | --- | --- | --- | --- | --- | --- | --- | --- | --- | --- | --- | --- |
| CN(C(=O)Oc1ccc(C(F)(F)F)cc1C(F)(F)F)c1ccc(F)cc1 [MC160385] | substantial Polθ-pol MMEJ inhibition |  |  |  |  |  |  |  |  |  |  |  |  |  |  |  |  |  |
| CN(C(=O)Oc1c(N2CCN(CCO)C2=O)cc(C(F)(F)F)cc1C(F)(F)F)c1ccc(F)cc1 [RTx-161] | concentration dependent inhibition | 3.422 | 3.067% and 3.933% and 3.267% | 2.8% and 4% and 2.5% and 3.3% and 3.6% and 3.5% and 3.1% and 4.2% and 3.8% | 3.378 | 3.067% and 3.8% and 3.267% | 2.9% and 3.3% and 2.6% and 3.2% and 3.9% and 3.4% and 3.1% and 4.2% and 3.8% | 2.733 | 3.033% and 2.067% and 3.1% | 2.9% and 2.2% and 3.3% and 2.8% (2×) and 2.1% and 3.4% and 1.9% and 3.2% | reduction in cellular MMEJ; also recorded: suppression of MMEJ | 1.611 | 1.8% and 1.367% and 1.667% | 1.9% and 1.3% and 1.8% and 1.6% (2×) and 1.5% and 1.2% and 1.7% | 89.30 | 0.85 | 99.15 | no inhibition |
